This passage reports EC50 and IC50 results from patent US7199267B1, “Recognition of oligiosaccaride molecular targets by polycationic small molecule inhibitors and treatment of immunological disorders and infectious diseases” (MediQuest Therapeutics, Inc., priority 2005, dated 2007).

Broadly, the IC50 is the concentration needed to halve the response being measured.

Test [1] can be described thus: BODIPY-TR-cadaverine (BC) fluorescence displacement assay for LPS binding affinity. The note with it: purified re-synthesized leads; half-maximal effective displacement of probe; 50 mM Tris buffer, pH 7.4; read-out: Binding affinity (BC displacement) ED50 value. An excerpt: Quantitative Estimation of LPS Binding Affinity. The relative binding affinities of the entire library of analogs with a recently-described high-throughput fluorescence based displacement assay, is examined using BODIPY-TR cadaverine (BC).^81;82 Results are reported as half-maximal effective displacement of probe (ED50). In all experiments, Polymyxin B (PMB), a decapeptide antibiotic, known to bind and neutralize LPS,^83–86 is used as a reference compound.
Rapid-throughput Fluorescence Displacement Assay for quantifying binding affinities to LPS. The BODIPY-TR-cadaverine (BC; (5-(((4-(4,4-difluoro-5-(2-thienyl)-4-bora-3a,4a-diaza-s-indacene-3-yl) phenoxy)acetyl)amino)pentylamine, hydrochloride; obtained from Molecular probes, Inc., Eugene, Oreg.) displacement assay to quantify the affinities of binding of compounds to LPS has been described in detail recently.^81 This assay is performed in a rapid-throughput format as follows: the first column (16 wells) of a Corning Nonbinding Surface 384-well flat-bottom black fluorescence microplate contain 15 test compounds plus polymyxin B, all at 5 mM in DMSO, and are serially diluted two-fold in 50 mM Tris buffer, pH 7.4, across the remaining 23 columns, achieving a final dilution of 0.596 nM in a volume of 40 μl. Polymyxin B (PMB), a peptide antibiotic known to bind and neutralize LPS^95 serve as the positive control and reference compound for every plate, enabling the quantitative assessment of repeatability and reproducibility (CV and Z′ factors) for the assay. Automated liquid handling is performed on a Precision 2000 automated microplate pipetting system, programmed using the Precision Power software, Bio-Tek Instruments Inc., VT, USA.

For test [2], the system named is murine macrophage J774A.1 cells. In words: Nitric oxide assay (Griess): inhibition of LPS-induced NO production. In kind it is cell-based. Particulars: purified re-synthesized leads; 10 ng/ml LPS stimulation, 16 h; read-out: NO inhibition in murine J774 cells IC50 value. How it is done:
Assessment of neutralization of LPS toxicity: NO inhibition activity. Murine monocytes (J774.A1 cells) produce measurable quantities of NO upon exposure to LPS and provide a high-throughput and validated model for the rapid and quantitative assessment of compounds in neutralizing the toxicity of LPS.^81;82;94 Compounds that neutralize LPS inhibit NO production in a dose-dependent manner from which 50% inhibitory concentrations (IC50) were determined (FIG. 4). The analogs determined to have the highest affinity in the BC-binding assay are then assayed in this NO inhibition assay (Table 1). Results in this assay parallel those in the binding assay (FIG. 5). Nitric Oxide Assay. Nitric oxide production is measured as total nitrite in murine macrophage J774A.1 cells using the Griess assay^96 as described previously.^94 J774A.1 cells are plated at ˜10^5/ml in a volume of 40 μl/well, in 384-well, flat-bottomed, cell culture treated microtiter plates and subsequently stimulated with 10 ng/ml lipopolysaccharide (LPS). Concurrent to LPS stimulation, serially diluted concentrations of test compounds are added to the cell medium and left to incubate overnight for 16 h. Polymyxin B is used as reference compound in each plate. Positive- (LPS stimulation only) and negative-controls (J774A. 1 medium only) are included in each experiment. Nitrite concentrations are measured by adding 40 μl of supernatant to equal volumes of Griess reagents ([…]; 0.1% NED solution in ddH2O and 1% sulfanilamide, 5% phosphoric acid solution in ddH2O) and incubating for 15 minutes at room temperature in the dark. Absorbance at 535 nm is measured using a Molecular Devices Spectramax M2 multifunction plate reader (Sunnyvale, Calif.). Nitrite concentrations are interpolated from standard curves obtained from serially diluted sodium nitrite standards.
On the technique in general: Griess reagent forms a coloured azo dye with nitrite.

Regarding `CCCCCCCCCCCCCCCCCCNCC(=O)NC(Cc1ccccc1)C(=O)NCCOCCN` (centres unmarked) [compound 1002], in test [1], the EC50 is 12.4 µM. Also, the IC50 in test [2] worked out at 17.6 µM.

On to `CCCCCCCCCCCCCCCCCCNCCC(=O)NC(Cc1ccccc1)C(=O)NCCOCCN` (centres unmarked) [compound 1007], for which the EC50 in test [1] came out at 2.54 µM. For the same compound, the IC50 in test [2] amounted to 2.79 µM.

For the compound `CCCCCCCCCCCCCCCCCCNCCCC(=O)NC(Cc1ccccc1)C(=O)NCCOCCN` (centres unmarked) [compound 1012], the EC50 in test [1] was determined as 7.68 µM. Further, in test [2], the IC50 came out at 3.78 µM.

With `CCCCCCCCCCCCCCCCCCNCC(=O)NC(Cc1cnc[nH]1)C(=O)NCCOCCN` (centres unmarked) [compound 1032], the EC50 in test [1] is 13.1 µM. Moreover, the IC50 in test [2] came to 1.64 µM.

As to `CCCCCCCCCCCCCCCCCCNCCC(=O)NC(Cc1cnc[nH]1)C(=O)NCCOCCN` (centres unmarked) [compound 1037], the EC50 in test [1] is 3.17 µM. For the same compound, in test [2], the IC50 was found to be 1.88 µM.

For `CCCCCCCCCCCCCCCCCCNCCCC(=O)NC(Cc1cnc[nH]1)C(=O)NCCOCCN` (centres unmarked) [compound 1042], the EC50 in test [1] turned out to be 5.38 µM. The IC50 in test [2] turned out to be 1.86 µM.

As for `CCCCCCCCCCCCCCCCCCNCC(=O)NCC(=O)NCCOCCN` [compound 1047], in test [1], the EC50 stood at 14 µM. The IC50 in test [2] stood at 11.5 µM.

For the compound `CCCCCCCCCCCCCCCCCCNCCC(=O)NCC(=O)NCCOCCN` [compound 1052], the EC50 in test [1] worked out at 14.2 µM. Also, the IC50 in test [2] was found to be 1.84 µM.

`CCCCCCCCCCCCCCCCCCNCCCC(=O)NCC(=O)NCCOCCN` [compound 1057]: the EC50 in test [1] came out at 10.8 µM. Further, the IC50 in test [2] worked out at 3.33 µM.

Take `CCCCCCCCCCCCCCCCCCNCC(=O)NC(Cc1ccccc1)C(=O)NCCCN` (centres unmarked) [compound 1092]: the EC50 in test [1] came to 8.8 µM. Moreover, in test [2], the IC50 was 6.74 µM.

Consider `CCCCCCCCCCCCCCCCCCNCCC(=O)NC(Cc1ccccc1)C(=O)NCCCN` (centres unmarked) [compound 1097], for which, in test [1], the EC50 is 4.13 µM. Moreover, the IC50 in test [2] turned out to be 8.7 µM.

As to `CCCCCCCCCCCCCCCCCCNCCCC(=O)NC(Cc1ccccc1)C(=O)NCCCN` (centres unmarked) [compound 1102], the EC50 in test [1] worked out at 5.75 µM. Also, in test [2], the IC50 amounted to 3.42 µM.

Consider `CCCCCCCCCCCCCCCCCCNCC(=O)NC(Cc1cnc[nH]1)C(=O)NCCCN` (centres unmarked) [compound 1122], for which, in test [1], the EC50 worked out at 4.87 µM. The IC50 in test [2] is 6.9 µM.

In the case of `CCCCCCCCCCCCCCCCCCNCCC(=O)NC(Cc1cnc[nH]1)C(=O)NCCCN` (centres unmarked) [compound 1127], in test [1], the EC50 came to 6.86 µM. The IC50 in test [2] is 8.06 µM.

As for `CCCCCCCCCCCCCCCCCCNCCCC(=O)NC(Cc1cnc[nH]1)C(=O)NCCCN` (centres unmarked) [compound 1132], the EC50 in test [1] was 3.01 µM. Further, in test [2], the IC50 amounted to 1.83 µM.

Turning to `CCCCCCCCCCCCCCCCCCNCC(=O)NCC(=O)NCCCN` [compound 1137], the EC50 in test [1] was found to be 6.61 µM. Moreover, in test [2], the half-inhibitory concentration (IC50) came to 7.94 µM.

With `CCCCCCCCCCCCCCCCCCNCCC(=O)NCC(=O)NCCCN` [compound 1142], the EC50 in test [1] amounted to 2420 µM. For the same compound, in test [2], the IC50 was determined as 5.26 µM.

`CCCCCCCCCCCCCCCCCCNCCCC(=O)NCC(=O)NCCCN` [compound 1147]: in test [1], the EC50 stood at 6.14 µM. Moreover, the IC50 in test [2] stood at 6.57 µM.

For `CCCCCCCCCCCCCCCCCCNCCC(=O)NC(Cc1ccccc1)C(=O)NCCCCCN` (centres unmarked) [compound 1187], the EC50 in test [1] stood at 3850 µM. Further, in test [2], the IC50 worked out at 4.88 µM.

As to `CCCCCCCCCCCCCCCCCCNCCCC(=O)NC(Cc1ccccc1)C(=O)NCCCCCN` (centres unmarked) [compound 1192], the EC50 in test [1] was found to be 7.51 µM. In test [2], the IC50 is 4.8 µM.

As for `CCCCCCCCCCCCCCCCCCNCC(=O)NC(Cc1cnc[nH]1)C(=O)NCCCCCN` (centres unmarked) [compound 1212], the EC50 in test [1] amounted to 12.1 µM. In addition, in test [2], the IC50 amounted to 2.04 µM.

With `CCCCCCCCCCCCCCCCCCNCCCC(=O)NC(Cc1cnc[nH]1)C(=O)NCCCCCN` (centres unmarked) [compound 1222], in test [1], the EC50 was 18.7 µM. Moreover, the IC50 in test [2] was determined as 0.9 µM.

`CCCCCCCCCCCCCCCCCCNCC(=O)NCC(=O)NCCCCCN` [compound 1227]: the EC50 in test [1] was 28.2 µM. Besides, the IC50 in test [2] was found to be 3.27 µM.

Regarding `CCCCCCCCCCCCCCCCCCNCCC(=O)NCC(=O)NCCCCCN` [compound 1232], in test [1], the EC50 came out at 11.2 µM. Also, the IC50 in test [2] turned out to be 4.61 µM.

Regarding `CCCCCCCCCCCCCCCCCCNCCCC(=O)NCC(=O)NCCCCCN` [compound 1237], in test [1], the EC50 was found to be 9.77 µM. Also, the IC50 in test [2] was 3.22 µM.

As to `CCCCCCCCCCCCCCCCCCNCC(=O)NCCCN` [compound 2322], the EC50 in test [1] was found to be 3.8 µM. Moreover, the IC50 in test [2] turned out to be 5.56 µM.

For the compound `CCCCCCCCCCCCCCCCCCNCCC(=O)NCCCN` [compound 2323], in test [1], the EC50 is 9.92 µM. Further, the IC50 in test [2] came to 7.49 µM.

Take `CCCCCCCCCCCCCCCCCCNCCCC(=O)NCCCN` [compound 2324]: the EC50 in test [1] amounted to 6.21 µM. Besides, the half-maximal inhibitory concentration (IC50) in test [2] was found to be 4.87 µM.

In the case of `CCCCCCCCCCCCCCCCCCNCC(=O)NCCCCCN` [compound 2325], the EC50 in test [1] worked out at 8.74 µM. Moreover, the IC50 in test [2] is 3.96 µM.

With `CCCCCCCCCCCCCCCCCCNCC(=O)NCCOCCN` [compound 2326], the EC50 in test [1] is 12.2 µM. The IC50 in test [2] is 9.73 µM.

Take `CCCCCCCCCCCCCCCCCCNCCC(=O)NCCCCCN` [compound 2327]: the EC50 in test [1] was 4.03 µM. Also, in test [2], the IC50 was found to be 1.08 µM.

For the compound `CCCCCCCCCCCCCCCCCCNCCC(=O)NCCOCCN` [compound 2328], the EC50 in test [1] is 9.16 µM. In addition, in test [2], the concentration for half-maximal inhibition (IC50) is 6.54 µM.

For the compound `CCCCCCCCCCCCCCCCCCNCCCC(=O)NCCCCCN` [compound 2329], in test [1], the EC50 worked out at 7.61 µM. Moreover, in test [2], the IC50 was determined as 2.07 µM.

For the compound `CCCCCCCCCCCCCCCCCCNCCCC(=O)NCCOCCN` [compound 2330], the EC50 in test [1] was 5.73 µM. For the same compound, the IC50 in test [2] worked out at 5 µM.
